Literature values as cited in US8048407B2, “In situ gelling self-reactive materials for embolization” (priority 2003, dated 2011).

Conditions: literature studies

SMILES: C=CC(=O)NCNC(=O)C=C [NMBA, N,N-methylenebisacrylamide]
- cross-link efficiency: 0.0066
